Measured values published in patent publication US11076594B2, “Pyrazolone compound or salt thereof, preparation method therefor, herbicide composition and use thereof” (QINGDAO KINGAGROOT CHEMICAL COMPOUNDS CO., LTD., priority 2015, dated 2021).

Assays:
Assay type in all cases: in vivo
Conditions in all cases: post-emergence spray at 4-5 leaf stage, 250 g/ha active ingredient with 450 kg/ha water, rated after 3 weeks in greenhouse
Indian mallow = experiment: weed control effect in post-emergence stage (Table 1); parameters: key: Level 10: completely dead; Level 9: above 95% growth control rate; Level 8: above 90% growth control rate; Level 7: above 80% growth control rate; Level 6: above 70% growth control rate; Level 5: above 60% growth control rate; Level 4: above 50% growth control rate; Level 3: above 20% growth control rate; Level 2: 5%-20% growth control rate; Level 1: below 5% growth control rate
Method in brief: (§1)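 Seeds were sown in pots, covered with 0.5-2 cm soil and grown in a greenhouse. At the 4-5 leaf stage, plants were sprayed with the test compound formulated in acetone, Tween 80 and water. Fresh weight control was rated after 3 weeks.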

bidens bipinnata = experiment: as above; parameters: key: Level 10: completely dead; Level 9: above 95% growth control rate; Level 8: above 90% growth control rate; Level 7: above 80% growth control rate; Level 6: above 70% growth control rate; Level 5: above 60% growth control rate; Level 4: above 50% growth control rate; Level 3: above 20% growth control rate; Level 2: 5%-20% growth control rate; Level 1: below 5% growth control rate
Method in brief: as §1

crab grass = experiment: as above; parameters: key: Level 10: completely dead; Level 9: above 95% growth control rate; Level 8: above 90% growth control rate; Level 7: above 80% growth control rate; Level 6: above 70% growth control rate; Level 5: above 60% growth control rate; Level 4: above 50% growth control rate; Level 3: above 20% growth control rate; Level 2: 5%-20% growth control rate; Level 1: below 5% growth control rate
Method in brief: as §1

echinochloa = experiment: as above; parameters: key: Level 10: completely dead; Level 9: above 95% growth control rate; Level 8: above 90% growth control rate; Level 7: above 80% growth control rate; Level 6: above 70% growth control rate; Level 5: above 60% growth control rate; Level 4: above 50% growth control rate; Level 3: above 20% growth control rate; Level 2: 5%-20% growth control rate; Level 1: below 5% growth control rate
Method in brief: as §1

foxtail = experiment: as above; parameters: key: Level 10: completely dead; Level 9: above 95% growth control rate; Level 8: above 90% growth control rate; Level 7: above 80% growth control rate; Level 6: above 70% growth control rate; Level 5: above 60% growth control rate; Level 4: above 50% growth control rate; Level 3: above 20% growth control rate; Level 2: 5%-20% growth control rate; Level 1: below 5% growth control rate
Method in brief: as §1

rorippa indica = experiment: as above; parameters: key: Level 10: completely dead; Level 9: above 95% growth control rate; Level 8: above 90% growth control rate; Level 7: above 80% growth control rate; Level 6: above 70% growth control rate; Level 5: above 60% growth control rate; Level 4: above 50% growth control rate; Level 3: above 20% growth control rate; Level 2: 5%-20% growth control rate; Level 1: below 5% growth control rate
Method in brief: as §1

corn = experiment: post-emergence stage experiment, crop (Table 1)
Method in brief: as §1

wheat = experiment: post-emergence stage experiment, crop (Table 1)
Method in brief: as §1

rice = experiment: post-emergence stage experiment, crop (Table 1); parameters: key: Level 10: completely dead; Level 9: above 95% growth control rate; Level 8: above 90% growth control rate; Level 7: above 80% growth control rate; Level 6: above 70% growth control rate; Level 5: above 60% growth control rate; Level 4: above 50% growth control rate; Level 3: above 20% growth control rate; Level 2: 5%-20% growth control rate; Level 1: below 5% growth control rate
Method in brief: as §1

| SMILES | weed control effect, Indian mallow (level) (Indian mallow) | weed control effect, Bidens bipinnata (level) (bidens bipinnata) | weed control effect, Crab grass (level) (crab grass) | weed control effect, Echinochloa (level) (echinochloa) | weed control effect, Green foxtail (level) (foxtail) | weed control effect, Rorippa indica (level) (rorippa indica) | effect on crop, Corn (level) (corn) | effect on crop, Wheat (level) (wheat) | effect on crop, Rice (level) (rice) |
| --- | --- | --- | --- | --- | --- | --- | --- | --- | --- |
| CCn1nc(C2CC2)c(C(=O)c2ccc(C(F)(F)F)c(N3CCCCCC3=O)c2Cl)c1OC(=O)c1cn(C)nc1C [Compound 125] | 10 | 10 | 10 | 8 (Level 8: above 90% growth control rate) | 10 | 4 (Level 4: above 50% growth control rate) | 5 (Level 5: above 60% growth control rate) | 2 (Level 2: 5%-20% growth control rate) | 10 |
| Cc1nn(C)cc1C(=O)Oc1c(C(=O)c2ccc(C(F)(F)F)c(N3CCCC3=O)c2Cl)cnn1C [Compound 016] | 10 | 5 (Level 5: above 60% growth control rate) | 10 | 10 | 10 | 10 | 3 (Level 3: above 20% growth control rate) | 3 (Level 3: above 20% growth control rate) | 4 (Level 4: above 50% growth control rate) |
| CCOC(=O)Oc1c(C(=O)c2ccc(C(F)(F)F)c(-n3cc(C)cn3)c2Cl)c(C)nn1C [Compound 085] | 10 | 10 | 8 (Level 8: above 90% growth control rate) | 9 (Level 9: above 95% growth control rate) | 10 | 2 (Level 2: 5%-20% growth control rate) | 0 | 0 | 6 (Level 6: above 70% growth control rate) |
| CCOc1c(C(=O)Oc2c(C(=O)c3ccc(C(F)(F)F)c(N4CCCC4=O)c3Cl)cnn2C)cnn1C [Compound 015] | 8 (Level 8: above 90% growth control rate) | 8 (Level 8: above 90% growth control rate) | 9 (Level 9: above 95% growth control rate) | 5 (Level 5: above 60% growth control rate) | 10 | 9 (Level 9: above 95% growth control rate) | 9 (Level 9: above 95% growth control rate) | 2 (Level 2: 5%-20% growth control rate) | 2 (Level 2: 5%-20% growth control rate) |
| CCn1ncc(C(=O)c2ccc(C(F)(F)F)c(N3CCCCC3=O)c2Cl)c1O [Compound 106] | 7 (Level 7: above 80% growth control rate) | 6 (Level 6: above 70% growth control rate) | 6 (Level 6: above 70% growth control rate) | 10 | 3 (Level 3: above 20% growth control rate) | 5 (Level 5: above 60% growth control rate) | 3 (Level 3: above 20% growth control rate) | 3 (Level 3: above 20% growth control rate) | 9 (Level 9: above 95% growth control rate) |
| CCOC(=O)Oc1c(C(=O)c2ccc(C(F)(F)F)c(N3CCCCCC3=O)c2Cl)c(C)nn1C [Compound 055] | 10 | 10 | 4 (Level 4: above 50% growth control rate) | 8 (Level 8: above 90% growth control rate) | 9 (Level 9: above 95% growth control rate) | 2 (Level 2: 5%-20% growth control rate) | 0 | 0 | 6 (Level 6: above 70% growth control rate) |
| CCc1nn(C)c(O)c1C(=O)c1ccc(C(F)(F)F)c(N2CCCC2=O)c1Cl [Compound 100] | 9 (Level 9: above 95% growth control rate) | 9 (Level 9: above 95% growth control rate) | 3 (Level 3: above 20% growth control rate) | 10 | 10 | 10 | 2 (Level 2: 5%-20% growth control rate) | 2 (Level 2: 5%-20% growth control rate) | 10 |
| CCn1nc(C)c(C(=O)c2ccc(C(F)(F)F)c(-n3cc(C)cn3)c2Cl)c1OC(=O)c1cn(C)nc1C [Compound 139] | 3 (Level 3: above 20% growth control rate) | 5 (Level 5: above 60% growth control rate) | 8 (Level 8: above 90% growth control rate) | 10 | 10 | 10 | 4 (Level 4: above 50% growth control rate) | 2 (Level 2: 5%-20% growth control rate) | 9 (Level 9: above 95% growth control rate) |
| CCn1nc(C)c(C(=O)c2ccc(C(F)(F)F)c(N3CCCCCC3=O)c2Cl)c1O [Compound 118] | 0 | 1 (Level 1: below 5% growth control rate) | 1 (Level 1: below 5% growth control rate) | 9 (Level 9: above 95% growth control rate) | 10 | 5 (Level 5: above 60% growth control rate) | 2 (Level 2: 5%-20% growth control rate) | 1 (Level 1: below 5% growth control rate) | 1 (Level 1: below 5% growth control rate) |
| Cc1nn(C)c(OC(=O)c2cnn(C)c2)c1C(=O)c1ccc(C(F)(F)F)c(N2CCCCCC2=O)c1Cl [Compound 057] | 10 | 5 (Level 5: above 60% growth control rate) | 1 (Level 1: below 5% growth control rate) | 4 (Level 4: above 50% growth control rate) | 1 (Level 1: below 5% growth control rate) | 10 | 0 | 0 | 3 (Level 3: above 20% growth control rate) |
